Where two headings read alike, the source gives them in different places.
How the values were obtained:
[1] = molecular target: SNAP-hSPR (sepiapterin reductase, SPR) (Homo sapiens, UniProt P35270); assay: biochemical; assay type: binding; conditions: terbium labelled SNAP-hSPR / SSZ labelled SNAP-EGFP; read-out: hTR-FRET IC50
[2] = tested on: BH4 levels in SK-N-BE (2) cells; assay: SKN-N-BE (2) cellular assay, BH4 levels by LC-MS; assay type: cell-based
[3] = Homo sapiens, SKNBE2, read-out: SK-N-BE(2) IC50, SK-N-BE (2) cells, BH4 levels by LC-MS

Chain of SNAP-hSPR (sepiapterin reductase, SPR) (P35270 whole entry): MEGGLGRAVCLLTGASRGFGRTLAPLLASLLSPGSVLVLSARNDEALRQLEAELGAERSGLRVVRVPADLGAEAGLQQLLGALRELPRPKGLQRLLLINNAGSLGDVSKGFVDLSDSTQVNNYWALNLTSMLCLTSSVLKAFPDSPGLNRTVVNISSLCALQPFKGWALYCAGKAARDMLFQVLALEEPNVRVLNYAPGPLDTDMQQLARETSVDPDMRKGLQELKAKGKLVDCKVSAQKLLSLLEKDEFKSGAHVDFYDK

Row | Structure (SMILES) | IC50 [1] [nM] | IC50 [2, 3] [nM] | IC50 ([2]; read-out: SK-N-BE(2) IC50, SK-N-BE (2) cells, BH4 levels by LC-MS) [nM]
1 | Cc1c(C(=O)N2CCC(C(F)(F)F)CC2)ccnc1-c1nc2ccsc2c(=O)[nH]1 [Q-0564] | 200 | 4000 | –
2 | O=C(c1ccn(-c2nc3ccsc3c(=O)[nH]2)n1)N1CCC(C(F)(F)F)CC1 [Q-0390] | 20 | 12000 | –
3 | CCCN(CCC)C(=O)c1cnn(-c2nc(C)cc(=O)[nH]2)c1C [Q-0351] | 10 | 4600 | –
4 | COC1(c2ccccc2)CCN(C(=O)c2cnn(-c3nc4c(c(=O)[nH]3)CCC4)c2C)CC1 [Q-0514] | 7 | 57 | –
5 | O=C(c1cnn(-c2nc3sccc3c(=O)[nH]2)c1)N1CCC(c2c[nH]c3ccccc23)CC1 [Q-0754] | 9 | 100 | –
6 | CCCN(CC)C(=O)c1cnn(-c2nc(C)cc(=O)[nH]2)c1C [Q-0347] | 10 | 7500 | –
7 | O=C(c1cnn(-c2nc3ccsc3c(=O)[nH]2)c1)N1CCC(S(=O)(=O)c2ccccc2)CC1 [Q-0524] | 4 | 1100 | –
8 | Cc1c(C(=O)N2CCN(c3ccc(F)cc3)CC2)cnn1-c1nn2cccc2c(=O)[nH]1 [Q-0823] | 1 | 66 | –
9 | Cc1c(C(=O)N2CCN(c3ccc(Cl)c(Cl)c3)CC2)cnn1-c1nn2cccc2c(=O)[nH]1 [Q-0828] | 4 | 50 | –
10 | COC(=O)c1cnn(-c2nn3c(F)ccc3c(=O)[nH]2)c1C [Q-0619] | 3 | 300 | –
11 | Cc1c(C(=O)N2CCC(C(O)(C(F)(F)F)C(F)(F)F)CC2)cnn1-c1nc2c(c(=O)[nH]1)CCC2 [Q-0701] | 2 | – | 82
12 | Cc1c(C(=O)N2CCC3(CCCCN3)C2)cnn1-c1nc2ccsc2c(=O)[nH]1 (stereo not shown) [Q-0595] | 70 | 4400 | –
13 | Cc1c(C(=O)N2CCC3(CCCN3Cc3ccccc3)C2)cnn1-c1nc2ccsc2c(=O)[nH]1 (stereo not shown) [Q-0601] | 5 | 100 | –
14 | Cc1c(C(=O)N2CCC(C#N)CC2)cnn1-c1nc2c(c(=O)[nH]1)CCC2 [Q-0464] | 3 | 300 | –
15 | O=C(O)c1cn(-c2nn3cccc3c(=O)[nH]2)nn1 [Q-0774] | 200 | 10000 | –
16 | O=C(c1cnn(-c2nn3cccc3c(=O)[nH]2)c1)N1CCC(OCC(F)(F)F)CC1 [Q-0783] | 2 | 300 | –
17 | Cc1c(C(=O)N2CCC(C(F)(F)F)CC2)cnn1-c1nn2cc(F)cc2c(=O)[nH]1 [Q-0543] | 3 | 400 | –
18 | Cc1c(C(=O)N2CCC3(CC2)CC3)cnn1-c1nn2cccc2c(=O)[nH]1 [Q-0681] | 1 | 200 | –
19 | O=C(c1cnn(-c2nc3c(c(=O)[nH]2)CCC3)c1)N1CCC(CC(F)(F)F)CC1 [Q-0744] | 3 | 100 | –
20 | CCC1(C#N)CCN(C(=O)c2cnn(-c3nn4cc(F)cc4c(=O)[nH]3)c2)CC1 [Q-0746] | 4 | 600 | –
21 | Cc1c(C(=O)N2CCC(OCC(F)(F)F)CC2)cnn1-c1nc2c(c(=O)[nH]1)CCC2 [Q-0521] | 8 | 100 | –
22 | Cc1c(C(=O)N2CCC3OCCCC3C2)cnn1-c1nc2ccsc2c(=O)[nH]1 (stereo not shown) [Q-0557] | 8 | 600 | –
23 | Cc1c(C(=O)N2c3ccccc3CC2C)cnn1-c1nc2ccsc2c(=O)[nH]1 (stereo not shown) [Q-0401] | 30 | 400 | –
24 | Cc1c(C(=O)N(C)C2CCCCC2)cnn1-c1nc2c(c(=O)[nH]1)CCC2 [Q-0492] | 8 | 200 | –
25 | Cc1c(C(=O)N2CCC(c3nc4cc(F)ccc4s3)CC2)cnn1-c1nc2ccsc2c(=O)[nH]1 [Q-0603] | 6 | 100 | –

Row | Structure (SMILES) | IC50 [1] [nM] | IC50 [2, 3] [nM] | IC50 ([2]; read-out: SK-N-BE(2) IC50, SK-N-BE (2) cells, BH4 levels by LC-MS) [nM]
26 | Cc1c(C(=O)N2CCC3(CCCCN3C(=O)OC(C)(C)C)C2)cnn1-c1nc2ccsc2c(=O)[nH]1 (stereo not shown) [Q-0579] | 5 | 100 | –
27 | Cc1cc(=O)[nH]c(-n2ncc(C(=O)N3CCN(c4ccccn4)CC3)c2Cc2ccccc2)n1 [Q-0369] | 200 | 28000 | –
28 | Cc1c(C(=O)N2C[C@@H]3CCS(=O)(=O)[C@@H]3C2)cnn1-c1nn2cccc2c(=O)[nH]1 [Q-0971] | – | 7200 | –
29 | Cc1c(C(=O)N2CCC(N3CCOCC3)C2)cnn1-c1nn2cccc2c(=O)[nH]1 (stereo not shown) [Q-0950] | – | 6200 | –
30 | Cc1c(C(=O)N2CC3CC2C[C@@H]3C#N)cnn1-c1nn2cccc2c(=O)[nH]1 (stereo partly shown) [Q-1001] | – | 1800 | –
31 | Cc1c(C(=O)N2CCC(C)C(F)C2)cnn1-c1nn2cccc2c(=O)[nH]1 (stereo not shown) [Q-1039] | – | 300 | –
32 | Cc1c(C(=O)N2CC(N3CC(F)(C(F)(F)F)C3)C2)cnn1-c1nn2cccc2c(=O)[nH]1 [Q-1042] | – | 1000 | –
33 | Cc1c(C(=O)N2CCN(c3nc4ccccc4s3)CC2)cnn1-c1nn2cccc2c(=O)[nH]1 [Q-0936] | – | 200 | –
34 | Cc1c(C(=O)N2CCn3cncc3C2)cnn1-c1nn2cccc2c(=O)[nH]1 [Q-0873] | – | 10000 | –
35 | Cc1c(C(=O)N2CCC(N3CCCC(C(F)(F)F)C3)CC2)cnn1-c1nn2cccc2c(=O)[nH]1 (stereo not shown) [Q-1015] | – | 400 | –
36 | Cc1c(C(=O)N2CCC3(CC2)CC3c2noc(-c3cccnc3)n2)cnn1-c1nn2cccc2c(=O)[nH]1 (stereo not shown) [Q-0932] | – | 700 | –
37 | Cc1c(C(=O)N2C3CCC2CC(N(C)C(=O)c2ccccc2)C3)cnn1-c1nn2cccc2c(=O)[nH]1 (stereo not shown) [Q-0970] | – | 400 | –
38 | Cc1c(C(=O)N2CCC3(CC2)CC3c2nnc(-c3cccc(F)c3)o2)cnn1-c1nn2cccc2c(=O)[nH]1 (stereo not shown) [Q-0905] | – | 600 | –
39 | Cc1c(C(=O)N2CCCCC2C(F)(F)F)cnn1-c1nn2cccc2c(=O)[nH]1 (stereo not shown) [Q-0920] | – | 500 | –
40 | Cc1c(C(=O)N2CCC(N3CCC(F)CC3)C2)cnn1-c1nn2cccc2c(=O)[nH]1 (stereo not shown) [Q-1027] | – | 3100 | –
41 | Cc1c(C(=O)N2CCN3CCC[C@@]3(C)C2)cnn1-c1nn2cccc2c(=O)[nH]1 [Q-0881] | – | 2300 | –
42 | Cc1c(C(=O)N2CC3CC(C)N(C(=O)C(C)(C)C)C3C2)cnn1-c1nn2cccc2c(=O)[nH]1 (stereo not shown) [Q-0946] | – | 1100 | –
43 | Cc1c(C(=O)N2CCC(C#N)CC2)cnn1-c1nn2cccc2c(=O)[nH]1 [Q-0883] | – | 1300 | –
44 | Cc1c(C(=O)N2CCC(N3CCC[C@@H](F)C3)C2)cnn1-c1nn2cccc2c(=O)[nH]1 (stereo partly shown) [Q-1016] | – | 2400 | –
45 | Cc1c(C(=O)N2CCC[C@H](OCC(F)(F)F)C2)cnn1-c1nn2cccc2c(=O)[nH]1 [Q-1044] | – | 1000 | –
46 | Cc1c(C(=O)N2CCC(N3CC[C@H](F)C3)C2)cnn1-c1nn2cccc2c(=O)[nH]1 (stereo partly shown) [Q-1030] | – | 3100 | –
47 | Cc1c(C(=O)N2CC3CCCC(C2)N3C(=O)OC(C)(C)C)cnn1-c1nc2c(c(=O)[nH]1)CCC2 [Q-1045] | – | 100 | –
48 | Cc1c(C(=O)N2C3CCC2CN(c2ccc(C#N)cc2)C3)cnn1-c1nn2cccc2c(=O)[nH]1 [Q-0869] | – | 100 | –
49 | Cc1c(C(=O)N2CCC(c3nncn3C3CC3)CC2)cnn1-c1nn2cccc2c(=O)[nH]1 [Q-0958] | – | 10000 | –
50 | Cc1c(C(=O)N2CCn3ccnc3C2)cnn1-c1nn2cccc2c(=O)[nH]1 [Q-0866] | – | 6700 | –

Row | Structure (SMILES) | IC50 [1] [nM] | IC50 [2, 3] [nM] | IC50 ([2]; read-out: SK-N-BE(2) IC50, SK-N-BE (2) cells, BH4 levels by LC-MS) [nM]
51 | Cc1c(C(=O)N2CCN(C(C#N)c3cccs3)CC2)cnn1-c1nn2cccc2c(=O)[nH]1 (stereo not shown) [Q-0964] | – | 8900 | –
52 | Cc1c(C(=O)N2CC(OCC(F)(F)F)C2)cnn1-c1nn2cccc2c(=O)[nH]1 [Q-0987] | – | 1100 | –
53 | Cc1c(C(=O)N2CCCC3C2CCCN3C(=O)OC(C)(C)C)cnn1-c1nn2cccc2c(=O)[nH]1 (stereo not shown) [Q-0912] | – | 900 | –
54 | Cc1c(C(=O)N2CCC3CCC(=O)N(C4CC4)C3C2)cnn1-c1nn2cccc2c(=O)[nH]1 (stereo not shown) [Q-0954] | – | 9000 | –
55 | Cc1c(C(=O)N2CCC(c3nc(-c4ccccc4)cs3)CC2)cnn1-c1nn2cccc2c(=O)[nH]1 [Q-0939] | – | 83 | –
56 | Cc1c(C(=O)N2CC[C@@H](OCc3cnc(Cl)s3)C2)cnn1-c1nn2cccc2c(=O)[nH]1 [Q-1011] | – | 800 | –
57 | Cc1c(C(=O)N2CCC(n3cncn3)CC2)cnn1-c1nn2cccc2c(=O)[nH]1 [Q-0919] | – | 1700 | –
58 | Cc1c(C(=O)N2CC(C(F)(F)F)CC(C(F)(F)F)C2)cnn1-c1nn2cccc2c(=O)[nH]1 (stereo not shown) [Q-0967] | – | 1900 | –
59 | Cc1c(C(=O)N2CC(OCc3ccc(F)c(F)c3)C2)cnn1-c1nn2cccc2c(=O)[nH]1 [Q-1000] | – | 900 | –
60 | Cc1c(C(=O)N2CC3(CCN(C(=O)OC(C)(C)C)CC3)C2)cnn1-c1nc2c(c(=O)[nH]1)CCC2 [Q-0928] | – | 200 | –
61 | COC1(C2CC2)CCN(C(=O)c2cnn(-c3nn4cccc4c(=O)[nH]3)c2C)CC1 [Q-0938] | – | 100 | –
62 | Cc1c(C(=O)N2CCC(O)(Cc3ccc(F)cc3)C2)cnn1-c1nn2cccc2c(=O)[nH]1 (stereo not shown) [Q-1028] | – | 1100 | –
63 | Cc1c(C(=O)N2CC[C@H]3CN(C(=O)OC(C)(C)C)[C@H]3C2)cnn1-c1nn2cccc2c(=O)[nH]1 [Q-0929] | – | 2000 | –
64 | Cc1c(C(=O)N2CC[C@@H](COc3nccc(Cl)n3)C2)cnn1-c1nn2cccc2c(=O)[nH]1 [Q-1043] | – | 1400 | –
65 | Cc1c(C(=O)N2CCC(F)(c3ccccn3)CC2)cnn1-c1nn2cccc2c(=O)[nH]1 [Q-0962] | – | 300 | –
66 | Cc1c(C(=O)N2CC(N3CC(O)(C(F)(F)F)C3)C2)cnn1-c1nn2cccc2c(=O)[nH]1 [Q-1032] | – | 10000 | –
67 | Cc1c(C(=O)N2CCC(F)(c3ccc(Cl)cc3)CC2)cnn1-c1nn2cccc2c(=O)[nH]1 [Q-0990] | – | 200 | –
68 | Cc1c(C(=O)N2CCC(OCc3ccc(F)cc3)CC2)cnn1-c1nn2cccc2c(=O)[nH]1 [Q-0893] | – | 300 | –
69 | Cc1c(C(=O)N2CCC(CC(F)(F)F)C2)cnn1-c1nn2cccc2c(=O)[nH]1 (stereo not shown) [Q-0966] | – | 1300 | –
70 | O=C(c1cnn(-c2nn3c(F)ccc3c(=O)[nH]2)c1C1CC1)N1CCC1 [Q-0863] | – | 600 | –
71 | Cc1c(C(=O)N2[C@H](C)CN(C(=O)OC(C)(C)C)C[C@@H]2C)cnn1-c1nn2cccc2c(=O)[nH]1 [Q-0968] | – | 400 | –
72 | Cc1c(C(=O)N2CC3CC(C(F)(F)F)CC3C2)cnn1-c1nn2cccc2c(=O)[nH]1 (stereo not shown) [Q-0902] | – | 100 | –
73 | COC1(C(F)(F)F)CCCN(C(=O)c2cnn(-c3nn4cccc4c(=O)[nH]3)c2C)C1 (stereo not shown) [Q-1006] | – | 1400 | –
